Data as given in US9458120B2, “Phenoxypropanol derivative and pharmaceutical composition including the same” (KOREA INSTITUTE OF SCIENCE AND TECHNOLOGY, priority 2011, dated 2016).

Tests used:
[1] = molecular target: α1G T-type calcium channel (Homo sapiens, UniProt O43497); experiment: Assay for T-type calcium channel inhibition activity (FDSS6000 calcium imaging, KCl activation); type: cell-based; conditions: 75 s pre-treatment then KCl 75 mM, HEK293 cells expressing α1G T-type calcium channel and Kir2.1
Procedure: At 12-24 hours before the assay for T-type calcium channel activity, cells of HEK293 cell line (α1G cell line: KCTC 10519BP, GenBank, Korea Research Institute of Bioscience and Biotechnology) which stably express α1G T-type calcium channel and Kir2.1, were sub-cultured in a poly-L-lysine (0.05 mg/ml) treated 96-well plate with the density of 4×10^4 per a well using a 96-well cell dispenser (Titertek). On the day of assay, the 96-well plate to which the cells were attached were washed three times with a HEPES buffer solution (unit mM: 150 NaCl, 5 KCl, 1 MgCl2, 2 CaCl2, 10 HEPES, 10 glucose, pH 7.4) using a 96-well plate automatic washing device (Bio Tek), and then reacted with a HEPES buffer solution containing 5 μM fluo-3/AM and 0.001% (w/v) Pluronic F-127 at room temperature for 1 hour, to label with fluorescent dye, and then further washed twice with the HEPES buffer solution. Thereafter, at 10 minutes before the measurement using a FDSS6000 device, a washing with a HEPES buffer solution containing 10 mM CaCl2 was conducted once more, and the final volume was adjusted to 81 μl. Besides the above 96-well plate containing the cells, additional two 96-well drug plates were provided, in which the 96-well plates contained KCl (final concentration: 75 mM) for activating T-type calcium channel and a blocker drug, respectively.
Since most of cell-based HTS (High throughput screening) devices are equipped with a liquid application system for drug injection, but have no liquid sucking system, the blocker drug to be tested and KCl were respectively provided at the five-times higher concentration in 10 mM CaCl2 HEPES buffer solution at the amount of 27 μl, diluted five-times at the final cell plate volume of 135 μl, and then used in this test. In this Experimental Example, therefore, FDSS6000 (Hamamatsu Photonics) was used as an alternative to HTS device.
Specific FDSS6000 measurement conditions are as follows: After recording the reference value of 20 seconds, the change of intracellular calcium concentration which induced by pre-treatment of the drug (the prepared […]) for 75 seconds followed by administration of KCl was measured, in which the percentage (%) inhibition effect of the test drug was determined, through estimating the area of ratio value of 340/380 in the control without treatment of the test drug as 100%. As a reference drug, 10 μM of mibefradil was always used.
For accurate calcium-imagination, the light sources of 4 xenon lamps in FDSS6000 were radiated to make the cells exposed selectively to the excitation wavelength (340 nm and 380 nm) by computer-controlled filter wheel. Data was obtained at interval of each 1.23 second. The emitter fluorescence light inflow through a 515 nm long-pass filter was obtained as an average 340/380 ratio value for each well in the 96-wells by a cooled CCD camera and digital fluorescence analyzer in the device. All image data and analysis were obtained by using a FDSS6000-exclusive program provided by Hamamatsu Photonics, as described above.

TREK-1 channel = molecular target: T1, TREK-1 channel (Rattus norvegicus, UniProt Q920B6); experiment: Assay for TREK channel inhibition activity (whole cell patch clamp recording, COS7 cell transfected with GFP-rTREK-1); type: cell-based; conditions: COS7 cells, GFP-rTREK-1, whole-cell patch clamp; for inhibition at 101 µM: COS-7, Table 3 (value ± spread), 101 μM [sic], read-out: block % at 101 μM; for inhibition at 10 µM: COS-7, Table 2, read-out: block % at 10 μM
T1 construct: expressed in transfected cells; host or cells: COS7 (Korean Cell Line Bank), transient transfection with Effectene
T1 sequence (Q920B6 1-426): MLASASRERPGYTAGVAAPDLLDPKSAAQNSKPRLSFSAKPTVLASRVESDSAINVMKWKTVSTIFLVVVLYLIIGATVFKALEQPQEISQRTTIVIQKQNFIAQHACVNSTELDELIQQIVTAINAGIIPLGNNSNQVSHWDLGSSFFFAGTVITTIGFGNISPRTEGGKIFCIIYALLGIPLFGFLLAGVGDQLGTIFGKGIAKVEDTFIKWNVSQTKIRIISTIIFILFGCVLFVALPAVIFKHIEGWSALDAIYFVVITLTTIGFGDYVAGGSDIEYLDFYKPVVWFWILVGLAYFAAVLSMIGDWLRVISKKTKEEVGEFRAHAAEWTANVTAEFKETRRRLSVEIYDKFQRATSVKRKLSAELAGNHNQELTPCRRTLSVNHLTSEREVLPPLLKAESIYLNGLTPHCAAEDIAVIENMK
Procedure: The inhibition activity of the compound of the present invention against TREK-1 channel was measured by measuring the physiological activity by whole cell patch clamp recording.
COS7 cell (obtained from Korean Cell Line Bank (KCLB)) was transfected with GFP-rTREK-1 gene (accession number: AY727922) using an Effectene transfection reagent (Qiagen), and cultured for 24 hours in an incubator at 37° C. As a culture medium, Dulbecco's modified Eagle's medium (DMEM, GIBCO products from Invitrogen) containing 10% by weight of fetal bovine serum (FBS) and 1% by weight of penicillin/streptomycin (5000 unit/ml) was used. The cells thus prepared were adhered on a cover glass, which was placed on a chamber, and then a recording solution (150 mM NaCl, 10 mM HEPES, 10 mM KCl, 2 mM CaCl2, 5.5 mM D-Glucose, all reagents were purchased from Sigma) was applied. A glass microelectrode was filled with an intracellular solution prepared with the composition of 150 mM KCl, 5 mM EGTA, 10 mM HEPES, 0.5 mM CaCl2, 1 mM MgCl2, 4 mM Mg-ATP, and 0.3 mM Na-GTP (all reagents were purchased from Sigma), followed by whole-cell patch clamp recording. The voltage was fixed at −70 mV using a Digidata 1322A data acquisition system (Molecular Devices) and an Axopatch 200A amplifier (Axon Instruments), and the current generated by applying a voltage ramp from −100 mV to +100 mV for 1 second was measured using a Clampex9.2 program. A difference between the current values measured at +100 mV and −100 mV was defined as a current in the above experiment. The currents before and after blocker treatment were measured so as to determine the inhibition activity.
Block %=100−(current after blocker treatment/current before blocker treatment)*100

α1G T-type calcium channel, sequence (O43497 whole entry): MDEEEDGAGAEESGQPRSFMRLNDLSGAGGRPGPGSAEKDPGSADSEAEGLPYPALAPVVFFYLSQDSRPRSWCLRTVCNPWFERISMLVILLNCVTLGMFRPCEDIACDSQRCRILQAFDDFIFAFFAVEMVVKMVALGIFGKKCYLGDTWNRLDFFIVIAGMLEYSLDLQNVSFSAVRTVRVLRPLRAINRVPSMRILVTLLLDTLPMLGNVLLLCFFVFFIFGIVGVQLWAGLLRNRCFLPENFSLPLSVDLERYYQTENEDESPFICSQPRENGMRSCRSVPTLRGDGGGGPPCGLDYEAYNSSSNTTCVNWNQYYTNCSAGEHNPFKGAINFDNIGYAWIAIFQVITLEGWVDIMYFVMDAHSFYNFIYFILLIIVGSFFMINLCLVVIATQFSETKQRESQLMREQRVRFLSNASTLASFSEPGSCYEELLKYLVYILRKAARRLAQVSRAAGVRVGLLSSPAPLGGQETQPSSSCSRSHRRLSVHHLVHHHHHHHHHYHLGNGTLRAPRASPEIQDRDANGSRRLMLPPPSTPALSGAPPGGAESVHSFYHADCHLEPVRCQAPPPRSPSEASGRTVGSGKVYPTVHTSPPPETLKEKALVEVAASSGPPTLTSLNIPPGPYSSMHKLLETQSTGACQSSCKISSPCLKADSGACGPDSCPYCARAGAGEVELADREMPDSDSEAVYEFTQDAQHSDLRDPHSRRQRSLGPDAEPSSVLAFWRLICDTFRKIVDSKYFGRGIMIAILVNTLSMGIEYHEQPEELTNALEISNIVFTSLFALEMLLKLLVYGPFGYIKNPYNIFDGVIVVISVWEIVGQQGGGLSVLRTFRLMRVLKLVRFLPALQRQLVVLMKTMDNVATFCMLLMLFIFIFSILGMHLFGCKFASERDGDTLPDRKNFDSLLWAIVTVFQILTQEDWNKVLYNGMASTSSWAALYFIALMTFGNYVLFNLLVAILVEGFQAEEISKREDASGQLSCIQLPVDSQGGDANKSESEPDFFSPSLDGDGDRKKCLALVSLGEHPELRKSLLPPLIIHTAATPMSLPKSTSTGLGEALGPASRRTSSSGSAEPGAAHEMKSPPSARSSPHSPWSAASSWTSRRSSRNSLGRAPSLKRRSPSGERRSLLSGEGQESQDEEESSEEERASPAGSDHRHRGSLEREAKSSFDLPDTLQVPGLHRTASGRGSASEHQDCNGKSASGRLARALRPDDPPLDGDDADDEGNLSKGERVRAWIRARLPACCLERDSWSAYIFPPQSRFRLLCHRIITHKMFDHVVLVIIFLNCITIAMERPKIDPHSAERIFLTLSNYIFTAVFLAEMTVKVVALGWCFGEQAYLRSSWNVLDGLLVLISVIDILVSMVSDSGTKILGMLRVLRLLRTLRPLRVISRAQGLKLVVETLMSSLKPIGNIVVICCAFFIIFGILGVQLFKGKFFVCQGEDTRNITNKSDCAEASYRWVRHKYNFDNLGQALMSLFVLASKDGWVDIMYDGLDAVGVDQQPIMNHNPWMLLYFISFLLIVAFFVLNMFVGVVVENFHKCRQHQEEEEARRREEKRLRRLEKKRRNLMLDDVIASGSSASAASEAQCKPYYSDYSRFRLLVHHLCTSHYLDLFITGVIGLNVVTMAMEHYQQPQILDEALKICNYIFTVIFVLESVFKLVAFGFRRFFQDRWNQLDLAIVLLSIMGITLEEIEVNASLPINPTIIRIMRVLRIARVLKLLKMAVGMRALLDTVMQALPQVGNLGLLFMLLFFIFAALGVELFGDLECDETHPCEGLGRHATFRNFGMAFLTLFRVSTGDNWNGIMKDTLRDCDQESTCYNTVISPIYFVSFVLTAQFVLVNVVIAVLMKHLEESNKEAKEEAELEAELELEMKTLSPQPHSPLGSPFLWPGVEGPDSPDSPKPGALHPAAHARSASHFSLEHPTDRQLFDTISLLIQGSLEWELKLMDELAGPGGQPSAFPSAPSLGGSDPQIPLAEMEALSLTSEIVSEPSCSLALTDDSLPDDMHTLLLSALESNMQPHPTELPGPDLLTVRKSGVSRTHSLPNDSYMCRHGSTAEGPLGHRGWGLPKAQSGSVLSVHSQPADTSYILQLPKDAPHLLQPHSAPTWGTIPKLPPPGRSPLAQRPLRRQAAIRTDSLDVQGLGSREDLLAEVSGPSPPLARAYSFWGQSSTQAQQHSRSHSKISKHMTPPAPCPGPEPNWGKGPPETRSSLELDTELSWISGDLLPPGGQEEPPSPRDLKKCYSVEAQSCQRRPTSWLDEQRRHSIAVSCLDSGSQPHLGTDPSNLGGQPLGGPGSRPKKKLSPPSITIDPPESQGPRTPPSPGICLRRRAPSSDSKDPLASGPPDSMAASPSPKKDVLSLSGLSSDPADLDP

SMILES | inhibition [1] [%] | inhibition at 101 µM (TREK-1 channel) [%] | inhibition at 10 µM (TREK-1 channel) [%] | block % at 100 μM (TREK-1 channel; Table 2) [%] | block % at 100 μM (TREK-1 channel; Table 3 (value ± spread)) [%]
O=C(CN1CCN(C[C@H](O)COc2ccccc2)CC1)NCc1ccc(C(F)(F)F)cc1 [KKRE10207, (S)-2-(4-(2-hydroxy-3-phenoxypropyl)piperazin-1-yl)-N-(4-(trifluoromethyl)benzyl)acetamide] | – | 53 ± 5.98 | 53 | – | –
O[C@H](COc1ccc(F)cc1)CN1CCC(N2CCCC2)CC1 [KKRE10161, (S)-1-(4-fluorophenoxy)-3-(4-(pyrrolidin-1-yl)piperidin-1-yl)propan-2-ol] | -0.06 | 8.28 ± 3.49 | – | – | –
CC(C)Cc1cc(CNC(=O)CN2CCN(C[C@@H](O)COc3ccc(C(F)(F)F)cc3)CC2)nn1-c1ccccc1 [KKRE10210, (R)-2-(4-(2-Hydroxy-3-(4-(trifluoromethyl)phenoxy)propyl)piperazin-1-yl)-N-((5-isobutyl-1-phenyl-1H-pyrazol-3-yl)methyl)acetamide] | 67 | 77.5 ± 5.19 | – | 91.23 | 91.22 ± 1.77
O[C@H](COc1ccc(F)cc1)CN1CCC(F)(F)CC1 [KKRE10180, (S)-1-(4,4-difluoropiperidin-1-yl)-3-(4-fluorophenoxy)propan-2-ol] | 17.3 | 23.3 ± 10 | – | – | –
O=C(CN1CCN(C[C@@H](O)COc2ccc(C(F)(F)F)cc2)CC1)Nc1ccc(F)cc1 [KKRE10145] | – | 35.2 ± 4.89 | 35.2 | – | –
Cc1ccc(CNC(=O)CN2CCN(C[C@H](O)COc3ccccc3)CC2)cc1 [KKRE10205, (S)-2-(4-(2-hydroxy-3-phenoxypropyl)piperazin-1-yl)-N-(4-methylbenzyl)acetamide] | – | 26.4 ± 12.2 | 26.4 | – | –
O=C(CN1CCN(C[C@@H](O)COc2ccccc2)CC1)NCc1ccc(C(F)(F)F)cc1 [KKRE10206, (R)-2-(4-(2-hydroxy-3-phenoxypropyl)piperazin-1-yl)-N-(4-(trifluoromethyl)benzyl)acetamide] | – | 44 ± 7.7 | – | – | –
O[C@H](COc1ccc(C(F)(F)F)cc1)CN1CCC(F)(F)CC1 [KKRE10190, (S)-1-(4,4-difluoropiperidin-1-yl)-3-(4-(trifluoromethyl)phenoxy)propan-2-ol] | 35 | – | – | – | –
O=C(CN1CCN(CC(O)COc2ccc(C(F)(F)F)cc2)CC1)NC1CCCCC1 (centres unmarked) [KKRE10177, N-cyclohexyl-2-(4-(2-hydroxy-3-(4-(trifluoromethyl)phenoxy)propyl)piperazin-1-yl)acetamide] | 42 | – | – | – | –
O[C@H](COc1ccc(C(F)(F)F)cc1)CN1CCC(O)(c2ccccc2)CC1 [KKRE10191, (S)-1-(2-hydroxy-3-(4-(trifluoromethyl)phenoxy)propyl)-4-phenylpiperidin-4-ol] | 16.8 | – | – | – | –
Cc1ccc(OC[C@@H](O)CN2CCN(Cc3c(F)cccc3Cl)CC2)cc1 [KKRE10138] | – | 13 ± 10.1 | 13 | 71.47 | 71.47 ± 3.30
O[C@H](COc1ccc(C(F)(F)F)cc1)CN1CCC(N2CCCC2)CC1 [KKRE10189, (S)-1-(4-(pyrrolidin-1-yl)piperidin-1-yl)-3-(4-(trifluoromethyl)phenoxy)propan-2-ol] | 8.45 | – | – | – | –
COc1cccc(C2CCN(C[C@@H](O)COc3ccc(F)cc3)CC2)c1 [KKRE10162, (R)-1-(4-fluorophenoxy)-3-(4-(3-methoxyphenyl)piperidin-1-yl)propan-2-ol] | – | 52.5 ± 6.76 | 52.5 | – | –

The remaining lines, values ahead:

inhibition [1] [%] | inhibition at 101 µM (TREK-1 channel) [%] | inhibition at 10 µM (TREK-1 channel) [%] | block % at 100 μM (TREK-1 channel; Table 2) [%] | block % at 100 μM (TREK-1 channel; Table 3 (value ± spread)) [%] | SMILES
60 | 78.1 ± 2.95 | – | – | – | CC(C)Cc1cc(CNC(=O)CN2CCN(C[C@H](O)COc3ccc(F)cc3)CC2)nn1-c1cc(Cl)cc(Cl)c1 [KKRE10230, (S)-N-((1-(3,5-Dichlorophenyl)-5-isobutyl-1H-pyrazol-3-yl)methyl)-2-(4-(3-(4-fluorophenoxy)-2-hydroxypropyl)piperazin-1-yl)acetamide]
74.3 | – | – | – | – | O=C(CN1CCN(C[C@@H](O)COc2ccc(C(F)(F)F)cc2)CC1)NCc1cc(C2CC2)n(-c2ccccc2)n1 [KKRE10212, (R)-N-((5-cyclopropyl-1-phenyl-1H-pyrazol-3-yl)methyl)-2-(4-(2-hydroxy-3-(4-(trifluoromethyl)phenoxy)propyl)piperazin-1-yl)acetamide]
73.5 | 76.1 ± 5.79 | – | – | – | CC(C)Cc1cc(CNC(=O)CN2CCN(C[C@@H](O)COc3ccc(C(F)(F)F)cc3)CC2)nn1-c1cc(Cl)cc(Cl)c1 [KKRE10218, (R)-N-((1-(3,5-dichlorophenyl)-5-isobutyl-1H-pyrazol-3-yl)methyl)-2-(4-(2-hydroxy-3-(4-(trifluoromethyl)phenoxy)propyl)piperazin-1-yl)acetamide]
– | – | – | 33.46 | 33.46 ± 8.09 | C=C[C@H]1C[N@@]2CC[C@H]1C[C@@H]2[C@@H](O)c1ccnc2ccc(OC)cc12 [quinidine, reference compound]
– | 21.6 ± 4.63 | – | – | – | CC(C)Cc1cc(CN2CCN(C[C@@H](O)COc3ccc(F)cc3)CC2)nn1-c1ccccc1 [KKRE10233]
– | 21.7 ± 3.13 | – | – | – | CC(C)Cc1cc(CN2CCN(C[C@H](O)COc3ccc(F)cc3)CC2)nn1-c1ccccc1 [KKRE10232]
– | 19.8 ± 9.57 | 19.8 | 49.71 | 49.71 ± 5.83 | CC[C@H]1CN2CC[C@H]1C[C@H]2[C@H](O)c1ccnc2ccc(OC)cc12 [hydroquinine, reference compound]
– | 48.5 ± 4.26 | – | – | – | CC(C)Cc1cc(CN2CCN(C[C@@H](O)COc3ccc(C(F)(F)F)cc3)CC2)nn1-c1ccccc1 [KKRE10231]
– | 84.2 ± 2.22 | – | – | – | CC(C)Cc1cc(CN2CCN(C[C@H](O)COc3ccc(C(F)(F)F)cc3)CC2)nn1-c1ccccc1 [KKRE10234]
– | 17 ± 6.93 | 17 | 50.00 | 50.00 ± 5.72 | C=C[C@H]1C[N@@]2CC[C@H]1C[C@H]2[C@H](O)c1ccnc2ccc(OC)cc12 [quinine, reference compound]
